Measured values as given in US20030108893A1, “Method for establishing neurogically relevant properties of a material” (priority 1999, published 2003).

What was measured:
threadworm (C. elegans) [1] = assay: Neurotoxic substance administered to nematodes in liquid medium; behavior or morphology phenotype observed; assay type: in vivo, Caenorhabditis elegans; conditions: for behavioral anomalies or changes in morphology after administration of neurotoxic compound: nematodes (threadworms), general finding
Description: The response to the administration of neurotoxic substances which act on the central nervous system was investigated in nematodes of the genus Caenorhabditis and, in particular, in Caenorhabditis elegans. In this threadworm, a characteristic phenotype, which is expressed, for example, in movement disturbances, a reduced number of progeny or morphological changes,; is observed both in the larval stages L1, L2, L3 and L4 (see “The Nematode Caenorhabditis elegans”; Wood et al., Cold Spring Harbor Laboratory, 1988) and in the adult stage following incubation with a neurotoxic substance. This can be ascertained by observing the phenotype microscopically, by determining the number of progeny per animal and time period or by detecting nerve cells which have been labeled with particular dyes (e.g. GFP fusion proteins) and whose color changes after they have been acted upon by a neurotoxic substance.
(§1) Per assay, about 100 threadworm (C. elegans) test animals at a defined stage of development (e.g. L1 larval stage) were incubated in liquid medium at constant temperature (e.g. 20° C.). […]
This can be expressed in severe movement disturbances, a reduced number of progeny or morphological changes.

threadworm (C. elegans) [2] = assay: Preincubation with test material before MPTP; reversion or prevention of the MPTP phenotype; assay type: in vivo, Caenorhabditis elegans; conditions: 100 C. elegans; three days of preincubation with L-DOPA, MPTP added on the third day; observed on day 6 (Figure B)
Description: It is possible to expose the nematodes to the materials to be investigated in a wide variety of ways. For example, it is possible to culture the animals in Petri dishes containing an agar which contains neurotoxic substances, on the one hand, and the substances of interest on the other. However, it is also possible to bathe the animals, in a simple manner, in the materials to be investigated. As well as being particularly simple, this variant also makes it possible to standardize the concentrations more easily and to achieve a higher throughput in a screening system. For an investigation, use is made of populations of the animals, which populations are then incubated with different solutions of the materials and at different concentrations. […] The observation, namely the reversion or prevention of the behavioral anomaly or the morphological change following neurotoxin treatment, makes it possible to draw a conclusion with regard to the possible activity and site of action of the material whose suitability as a drug is under investigation.
as §1

Structure (SMILES)	behavioral anomalies or changes in morphology after administration of neurotoxic compound (threadworm (C. elegans) [1])	expression of the phenotype brought about by MPTP after incubation with test material (threadworm (C. elegans) [2])	characteristic phenotype (severe movement disturbances, reduced number of progeny or morphological changes) (threadworm (C. elegans) [1]; about 100 C. elegans, e.g. L1 larval stage, liquid medium, e.g. 20° C., MPTP 16 to 500 μg/ml, observed e.g. on day 6 (Figure A))
NCCc1cc(O)c(O)cc1O [6-OHDA, 6-hydroxy-dopamine]	exhibit behavioral anomalies or changes in their morphology		
N[C@@H](Cc1ccc(O)c(O)c1)C(=O)O [L-DOPA, L-3,4-dihydroxyphenylalanine]		the phenotype which is brought about by MPTP is not expressed	
CN1CC=C(c2ccccc2)CC1 [MPTP, 1-methyl-4-phenyl-1,2,3,6-tetrahydropyridine]	exhibit behavioral anomalies or changes in their morphology		a characteristic phenotype was observed
